Experimental data taken from PubChem BioAssay (NCI).
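Method: 48-hour compound exposure of cells in 96-well plates, five concentrations, linear interpolation of endpoints. GI50 is the concentration that inhibits growth by half. Definition used: TGI = concentration required for complete inhibition of growth.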

Assays:
Test in all cases: inhibition of tumour cell growth, NCI panel, 48 h
786-0 renal = test system: 786-0 renal
SN12C renal = test system: SN12C renal
HCC-2998 colon = test system: HCC-2998 colon
HS 578T breast = test system: HS 578T breast
OVCAR-8 ovarian = test system: OVCAR-8 ovarian
MDA-MB-231 breast = test system: MDA-MB-231 breast
M14 melanoma = test system: M14 melanoma
MALME-3M melanoma = test system: MALME-3M melanoma
UACC-257 melanoma = test system: UACC-257 melanoma
PC-3 prostate = test system: PC-3 prostate
A549 NSCLC = test system: A549 NSCLC
KM12 colon = test system: KM12 colon
MOLT-4 leukemia = test system: MOLT-4 leukemia
OVCAR-5 ovarian = test system: OVCAR-5 ovarian
SK-OV-3 ovarian = test system: SK-OV-3 ovarian
SF-539 CNS = test system: SF-539 CNS
SNB-19 CNS = test system: SNB-19 CNS
OVCAR-4 ovarian = test system: OVCAR-4 ovarian
HOP-62 NSCLC = test system: HOP-62 NSCLC
BT-549 breast = test system: BT-549 breast
MDA-MB-435 = test system: MDA-MB-435
A498 renal = test system: A498 renal
SF-295 CNS = test system: SF-295 CNS
IGROV1 ovarian = test system: IGROV1 ovarian
SNB-75 CNS = test system: SNB-75 CNS
HOP-92 NSCLC = test system: HOP-92 NSCLC
NCI-H460 lung = test system: NCI-H460 lung
HCT-116 colon = test system: HCT-116 colon
SK-MEL-5 melanoma = test system: SK-MEL-5 melanoma
ACHN renal = test system: ACHN renal
SK-MEL-2 melanoma = test system: SK-MEL-2 melanoma
DU-145 prostate = test system: DU-145 prostate
SK-MEL-28 melanoma = test system: SK-MEL-28 melanoma
TK-10 renal = test system: TK-10 renal
NCI-H23 lung = test system: NCI-H23 lung
LOX IMVI melanoma = test system: LOX IMVI melanoma
OVCAR-3 ovarian = test system: OVCAR-3 ovarian
RXF 393 renal = test system: RXF 393 renal
MCF7 breast = test system: MCF7 breast
NCI-H522 lung = test system: NCI-H522 lung
T-47D breast = test system: T-47D breast
NCI-H226 lung = test system: NCI-H226 lung
NCI/ADR-RES ovarian = test system: NCI/ADR-RES ovarian
EKVX NSCLC = test system: EKVX NSCLC
UACC-62 melanoma = test system: UACC-62 melanoma
SW-620 colon = test system: SW-620 colon
SF-268 CNS = test system: SF-268 CNS
CCRF-CEM leukemia = test system: CCRF-CEM leukemia
HL-60(TB) leukemia = test system: HL-60(TB) leukemia
U251 CNS = test system: U251 CNS
HT29 colon = test system: HT29 colon
HCT-15 colon = test system: HCT-15 colon

CC[C@]12C=CCN3CC[C@@]4(c5ccc(OC)cc5N(C)[C@H]4[C@@](O)(C(=O)OC)[C@@H]1OC(=O)CCC(=O)O[C@H]1CC[C@H]4[C@@H]5CC[C@H]6CC(=O)CC[C@]6(C)[C@H]5CC[C@]14C)[C@@H]32
GI50 (786-0 renal): 1.97 µM | TGI (786-0 renal): > 100 µM | GI50 (SN12C renal): 2.88 µM | TGI (SN12C renal): 36.2 µM | GI50 (HCC-2998 colon): 3.34 µM | TGI (HCC-2998 colon): > 100 µM | GI50 (HS 578T breast): 3.65 µM | TGI (HS 578T breast): > 100 µM | GI50 (OVCAR-8 ovarian): 5.84 µM | TGI (OVCAR-8 ovarian): > 100 µM | GI50 (MDA-MB-231 breast): 3.03 µM | TGI (MDA-MB-231 breast): 11.3 µM | GI50 (M14 melanoma): 2 µM | TGI (M14 melanoma): 22.2 µM | GI50 (MALME-3M melanoma): 2.98 µM | TGI (MALME-3M melanoma): 57.7 µM | GI50 (UACC-257 melanoma): 3.91 µM | TGI (UACC-257 melanoma): 16.6 µM | GI50 (PC-3 prostate): 0.703 µM | TGI (PC-3 prostate): > 100 µM | GI50 (A549 NSCLC): 4.19 µM | TGI (A549 NSCLC): 35.3 µM | GI50 (KM12 colon): 3.16 µM | TGI (KM12 colon): > 100 µM | GI50 (MOLT-4 leukemia): 2.59 µM | TGI (MOLT-4 leukemia): > 100 µM | GI50 (OVCAR-5 ovarian): 2.69 µM | TGI (OVCAR-5 ovarian): > 100 µM | GI50 (SK-OV-3 ovarian): 2.89 µM | TGI (SK-OV-3 ovarian): 9.55 µM | GI50 (SF-539 CNS): 3.89 µM | TGI (SF-539 CNS): > 100 µM | GI50 (SNB-19 CNS): 4.85 µM | TGI (SNB-19 CNS): > 100 µM | GI50 (OVCAR-4 ovarian): 2.58 µM | TGI (OVCAR-4 ovarian): > 100 µM | GI50 (HOP-62 NSCLC): 4.83 µM | TGI (HOP-62 NSCLC): > 100 µM | GI50 (BT-549 breast): 2.21 µM | TGI (BT-549 breast): > 100 µM | GI50 (MDA-MB-435): 2.89 µM | TGI (MDA-MB-435): > 100 µM | GI50 (A498 renal): 4.13 µM | TGI (A498 renal): 30.8 µM | GI50 (SF-295 CNS): 2.02 µM | TGI (SF-295 CNS): > 100 µM | GI50 (IGROV1 ovarian): 3.17 µM | TGI (IGROV1 ovarian): > 100 µM | GI50 (SNB-75 CNS): 3.3 µM | TGI (SNB-75 CNS): > 100 µM | GI50 (HOP-92 NSCLC): 1.83 µM | TGI (HOP-92 NSCLC): 9.72 µM | GI50 (NCI-H460 lung): 2.76 µM | TGI (NCI-H460 lung): 10.6 µM | GI50 (HCT-116 colon): 1.02 µM | TGI (HCT-116 colon): 10.1 µM | GI50 (SK-MEL-5 melanoma): 1.65 µM | TGI (SK-MEL-5 melanoma): 4.03 µM | GI50 (ACHN renal): 3.01 µM | TGI (ACHN renal): > 100 µM | GI50 (SK-MEL-2 melanoma): 2.49 µM | TGI (SK-MEL-2 melanoma): 6.18 µM | GI50 (DU-145 prostate): 3.66 µM | TGI (DU-145 prostate): 61.2 µM | GI50 (SK-MEL-28 melanoma): 3.27 µM | TGI (SK-MEL-28 melanoma): > 100 µM | GI50 (TK-10 renal): 2.55 µM | TGI (TK-10 renal): 17.8 µM | GI50 (NCI-H23 lung): 3.54 µM | TGI (NCI-H23 lung): > 100 µM | GI50 (LOX IMVI melanoma): 2.83 µM | TGI (LOX IMVI melanoma): 11.7 µM | GI50 (OVCAR-3 ovarian): 3.05 µM | TGI (OVCAR-3 ovarian): > 100 µM | GI50 (RXF 393 renal): 2.31 µM | TGI (RXF 393 renal): 6.73 µM | GI50 (MCF7 breast): 2.42 µM | TGI (MCF7 breast): > 100 µM | GI50 (NCI-H522 lung): 2.85 µM | TGI (NCI-H522 lung): 27 µM | GI50 (T-47D breast): 2.1 µM | TGI (T-47D breast): 29.7 µM | GI50 (NCI-H226 lung): 3.84 µM | TGI (NCI-H226 lung): > 100 µM | GI50 (NCI/ADR-RES ovarian): 2.91 µM | TGI (NCI/ADR-RES ovarian): > 100 µM | GI50 (EKVX NSCLC): 1.78 µM | TGI (EKVX NSCLC): > 100 µM | GI50 (UACC-62 melanoma): 3.25 µM | TGI (UACC-62 melanoma): > 100 µM | GI50 (SW-620 colon): 3.05 µM | TGI (SW-620 colon): 13.2 µM | GI50 (SF-268 CNS): 4.81 µM | TGI (SF-268 CNS): > 100 µM | GI50 (CCRF-CEM leukemia): 3.04 µM | TGI (CCRF-CEM leukemia): > 100 µM | GI50 (HL-60(TB) leukemia): 2.12 µM | TGI (HL-60(TB) leukemia): 5.36 µM | GI50 (U251 CNS): 3.74 µM | TGI (U251 CNS): 22.8 µM | GI50 (HT29 colon): 2.13 µM | TGI (HT29 colon): 6.06 µM | GI50 (HCT-15 colon): 2.44 µM | TGI (HCT-15 colon): > 100 µM
